The record followed here is patent publication US20250034510A1, “SYSTEMS, DEVICES, AND METHODS FOR BIOLOGICAL MATERIAL RESTORATION AND/OR CRYOPRESERVATION” (Oregon State University, priority 2023, published 2025).

Structures are written as SMILES. Where “and” joins values, the source holds several entries; their conditions need not be identical. Equal values may be shown once.

Data set [1] is described as follows: DMSO penetration in IVDs tracked by CT. The class given is in vitro ADME, bovine. As to conditions: for DMSO saturation level: free swelling IVD without compression, 10% DMSO. How it is done:
In this example, the transport of DMSO in free-swelling IVDs was assessed. Three skeletally mature Black Angus bovine IVDs were incubated in 10% DMSO for three days and CT-scanned at 0, 24, 56, and 72 hours. DMSO penetration was tracked using a Toshiba Aquilion 64-slice Computed Tomography (CT) unit provided by the Carlson College of Veterinary Medicine at Oregon State University. Acquisition parameters were set to 120 kVp, 240 FoV, 0.6 pitch, and 250 mA.
Materialize Mimics® 21.0 was used to segment the IVD's soft tissue (AF and NP). A code was developed in MATLAB® 9.9 to perform a Gaussian curve-fitting analysis of the segmented scans, estimating the mean signal intensity (FIG. 12).
The correlation in equation 1 was developed To relate mean signal intensity to penetration %, the mean signal intensity was normalized for the sample of interest (IVDn) to the intensities of both a fresh IVD (IVD0) and a fully-saturated IVD (IVDF*).
The effectiveness of PrimeGrowth™ (n=3) and compression (n=3) in improving the transport of DMSO and decreasing cell CPA exposure time were also assessed. PrimeGrowth™ is designed to clear blood clots in the CEP, improving transport through its pores and channels. Axial compression could enhance the convection transport of fluids in the IVD. IVDs treated with PrimeGrowth™ were incubated in a 30 mL Isolation Medium for one hour and rinsed in an equal volume of Neutralization Medium for two minutes. In a separate protocol, bovine IVDs were compressed in a custom-built bioreactor for four hours under a sine-wave load (0 MPa to 2.5 MPa at 0.1 Hz) and soaked in 10% DMSO. DMSO penetration in IVDs was tracked via CT scans compared to a control group (n=3) soaking in 10% DMSO. CT scans were acquired at 0, 5, 8, 24, and 36 hours.

The subject of data set [2] is nucleus pulposus (NP) cells. The experiment in a line: Cytotoxicity of CPA 1 on NP cells in monolayer culture (LIVE/DEAD assay). The format is cell-based, bovine. As to conditions: PG as part of CPA 1 (FIG. 13). From the text: In this example, NP cells were isolated following a protocol adapted and modified from Wiseman et al. (Wiseman, M. A., H. L. Birch, M. Akmal, and A. E. Goodship, Spine, 2005, 30:505-11). Two freshly skinned skeletally mature bovine tails were obtained from a local abattoir, disinfected for five minutes in a 1% Betadine solution (RC3955, VWR International, PA), and allowed to dry in a sterile environment for ten minutes. Muscle and fat tissue were removed from each tail, exposing the IVDs. The isolated IVDs were wrapped with a sterile gauze soaked in 0.9% sodium chloride (IC102892.5, VWR International, PA) and 55 mM sodium citrate (BDH9288, VWR International, PA) while awaiting dissection.
NP tissue was removed with a scalpel, cut into 4 mm^2 pieces, and digested in a humidified cell incubator at 37° C. and 5% CO2. […]
In this example, NP cells were cultured in 6 well-plates to elucidate the cytotoxicity of CPA 1 composed of 80% DMEM (D6046, Sigma), 10% DMSO (IC0219605590, VWR International, PA), and % 10 propylene glycol (PG) (P4347, Sigma, MO). […] Cells were stained with a fluorescent LIVE/DEAD™ assay (L3224, ThermoFisher, MA) and scanned using Keyence BZ-X700 fluorescence microscope (Oregon State University, OR). […]

As for `C[S+](C)[O-]` [DMSO, dimethylsulfoxide], in data set [1] (IVD compressed before soaking in 10% DMSO), the “time required for DMSO to fully saturate the disc” value was 3 h. In data set [1] (IVD without compression), the “time required to reach a 75% level of penetration” value came out at 72 h. In addition, the “time to reach equilibrium with the surrounding solution” value in data set [1] (IVD without compression (FIG. 14)) was determined as 72 h. Also, the DMSO penetration result in data set [1] (compression then free swelling, in 3 to 4 hours) is recorded as “about 90%”; in data set [1] (compression, at 3 hours), 97%. Moreover, the “decrease of the time required for full penetration by compression (improvement)” value in data set [1] (compression vs no compression) was 96% and 95%. Also, the figures for the DMSO saturation level in data set [1] (after 24 hours) and in data set [1] (by 72 hours of incubation) were 50% and 75%, respectively. Besides, the “mean DMSO penetration % compared to time 0 (one-way ANOVA, p<0.05)” value in data set [1] (free-swelling IVDs, after 24 hours of incubation) is listed as “significantly different”.

As to `CC(O)CO` (stereo not shown) [PG, propylene glycol], in data set [2], the “effect on cell viability in a monolayer cell culture” value was “devastating for cell viability”.
